Results from ChEMBL document CHEMBL4411318, “Discovery of a Series of 2'-α-Fluoro,2'-β-bromo-ribonucleosides and Their Phosphoramidate Prodrugs as Potent Pan-Genotypic Inhibitors of Hepatitis C Virus” (J Med Chem, 2019).

Tests used:
[1] = molecular target: RNA-directed RNA polymerase (Hepacivirus hominis) (UniProt O39930); conditions: Hepatitis C virus subtype 1b
Description: Inhibition of NS5B polymerase in wild type HCV genotype 1b infected in human Huh7 replicon cells after 5 days by RT-PCR assay

[2] = tested on: PBMC; assay: (§1) Cytotoxicity against human PBMC assessed reduction in cell viability after 5 days by MTT assay; assay type: cell-based; conditions: pbmc, 120 h
[3] = tested on: CCRF-CEM; assay: (§2) Cytotoxicity against human CCRF-CEM assessed reduction in cell viability after 4 days by MTT assay; assay type: cell-based; conditions: ccrf-cem, 96 h
[4] = Cytotoxicity against human HuH7 cells assessed reduction in cell viability after 3 to 5 days by MTT assay; assay type: cell-based, Huh-7
[5] = Stability in Beagle dog plasma assessed as compound remaining at 2 uM up to 2 hrs by LC-MS/MS analysis; assay type: ADME, cell-free, Canis lupus familiaris; conditions: read-out: Stability
[6] = as §1; assay type: cell-based; conditions: PBMC
[7] = as §2; assay type: cell-based; conditions: CCRF-CEM cells
[8] = tested on: HepG2; assay: Mitochondrial toxicity in human HepG2 cells assessed as lactic acid production at 50 uM followed by medium plus drugs replenishment every 3 to 4 days for 14 days relative to control; assay type: cell-based; conditions: hepg2, 336 h
[9] = tested on: nuclear ribosomal-DNA level; assay: in vitro; conditions: human, HepG2 cells
[10] = Stability in Sprague-Dawley rat plasma assessed as compound remaining at 2 uM after 2 hrs by LC-MS/MS analysis; assay type: ADME, cell-free; conditions: read-out: Stability
[11] = tested on: cytochrome c oxidase subunit 2 DNA level; assay: Mitochondrial toxicity in human HepG2 cells assessed as inhibition of cytochrome c oxidase subunit 2 DNA level at 50 uM followed by medium plus drugs replenishment every 3 to 4 days for 14 days relative to control; assay type: cell-based
[12] = tested on: cytochrome c oxidase subunit 2 DNA level; assay: Mitochondrial toxicity in human HepG2 cells assessed as inhibition of cytochrome c oxidase subunit 2 DNA level followed by medium plus drugs replenishment every 3 to 4 days for 14 days relative to control; assay type: cell-based
[13] = tested on: Huh-7; assay: Cytotoxicity against human HuH7 cells assessed reduction in cell viability after 3 to 5 days by cellular ribosomal RNA amplification assay
[14] = tested on: nuclear ribosomal-DNA level; assay: Mitochondrial toxicity in human HepG2 cells assessed as inhibition of nuclear ribosomal-DNA level at 50 uM followed by medium plus drugs replenishment every 3 to 4 days for 14 days relative to control; assay type: cell-based
[15] = tested on: cytochrome c oxidase subunit 2 DNA level; assay: Mitochondrial toxicity in human HepG2 cells assessed as inhibition of cytochrome c oxidase subunit 2 DNA level at 12.5 uM followed by medium plus drugs replenishment every 3 to 4 days for 14 days relative to control; assay type: cell-based
[16] = tested on: nuclear ribosomal-DNA level; assay: Mitochondrial toxicity in human HepG2 cells assessed as inhibition of nuclear ribosomal-DNA level at 12.5 uM followed by medium plus drugs replenishment every 3 to 4 days for 14 days relative to control; assay type: cell-based
[17] = tested on: Bone marrow cell; assay: Cytotoxicity against human bone marrow cells assessed as inhibition of burst forming unit-erythroid after 14 days by FACS analysis; assay type: cell-based; conditions: 336 h
[18] = in vitro; conditions: human, liver microsomes
Description: Intrinsic clearance in human liver measured from intrinsic clearance in human liver microsomes in presence of NADPH regenerating system by LC/MS/MS analysis

[19] = Mitochondrial toxicity in human HepG2 cells assessed as reduction in cell viability after 14 days in presence of galactose supplemented media by ATP depletion assay; assay type: cell-based
[20] = tested on: HepG2; assay: Mitochondrial toxicity in human HepG2 cells assessed as lactic acid production at 25 uM followed by medium plus drugs replenishment every 3 to 4 days for 14 days relative to control; assay type: cell-based; conditions: hepg2, 336 h
[21] = Drug metabolism in human HuH7 cells assessed as Tmax for NTP formation at 10 uM after 2 to 48 hrs by LC-MS/MS analysis; assay type: ADME, cell-based; conditions: huh-7, 10 µM
[22] = tested on: nuclear ribosomal-DNA level; assay: Mitochondrial toxicity in human HepG2 cells assessed as inhibition of nuclear ribosomal-DNA level at 25 uM followed by medium plus drugs replenishment every 3 to 4 days for 14 days relative to control; assay type: cell-based
[23] = molecular target: RNA-directed RNA polymerase (Hepacivirus hominis) (UniProt O39930); assay: Inhibition of NS5B polymerase in HCV genotype 2a infected in human HuH7 replicon cells after 5 days by RT-PCR analysis; assay type: cell-based; conditions: Hepatitis C virus subtype 2a
[24] = tested on: Bone marrow cell; assay: Cytotoxicity against human bone marrow cells assessed as inhibition of colony-forming unit-granulocyte after 14 days by FACS analysis; assay type: cell-based; conditions: 336 h
[25] = molecular target: RNA-directed RNA polymerase (Hepacivirus hominis) (UniProt O39930); assay: Inhibition of NS5B polymerase in HCV genotype 1b/5a chimeric replicon infected in human HuH7 replicon cells after 5 days by RT-PCR analysis; assay type: cell-based
[26] = molecular target: RNA-directed RNA polymerase (Hepacivirus hominis) (UniProt O39930); assay: Inhibition of NS5B polymerase in HCV genotype 1b/4a chimeric replicon infected in human HuH7 replicon cells after 5 days by RT-PCR analysis; assay type: cell-based
[27] = Mitochondrial toxicity in human HepG2 cells assessed as reduction in cell viability after 3 days in presence of galactose supplemented media by ATP depletion assay; assay type: cell-based
[28] = Stability in simulated intestinal fluid after 24 hrs by LC/MS/MS analysis; assay type: ADME; conditions: simulated gi fluid
[29] = Half life in human intestinal microsomes by LC/MS/MS analysis; assay type: ADME, Intestine, Microsome
[30] = in vitro; conditions: human, liver microsomes; remark: listed apart in the source
Description: Half life in human liver microsomes in presence of NADPH regenerating system by LC/MS/MS analysis

[31] = Mitochondrial toxicity in human HepG2 cells assessed as reduction in cell viability after 14 days in presence of glucose supplemented media by ATP depletion assay; assay type: cell-based
[32] = in vitro; conditions: human, liver microsomes; remark: listed apart in the source
Description: Stability in human liver microsomes assessed as compound remaining in absence of NADPH regenerating system after 60 mins by LC/MS/MS analysis

[33] = Stability in human plasma assessed as compound remaining at 2 uM after 120 mins by LC/MS/MS analysis; assay type: ADME, cell-free; conditions: read-out: Stability
[34] = Prodrug activation in Beagle dog liver assessed as assessed as formation of triphosphate form parent nucleoside at 10 mg/kg, po measured at 4 hrs by LC-MS/MS analysis; conditions: in vivo
[35] = in vitro; conditions: human, liver microsomes; remark: listed apart in the source
Description: Intrinsic clearance in human liver microsomes in presence of NADPH regenerating system by LC/MS/MS analysis

[36] = Mitochondrial toxicity in human HepG2 cells assessed as reduction in cell viability after 3 days in presence of glucose supplemented media by ATP depletion assay; assay type: cell-based
[37] = Drug uptake in Beagle dog liver at 10 mg/kg, po measured up to 4 hrs by LC-MS/MS analysis; conditions: in vivo, BLD = below limit of detection
[38] = tested on: HepG2; assay: Mitochondrial toxicity in human HepG2 cells assessed as lactic acid production at 12.5 uM followed by medium plus drugs replenishment every 3 to 4 days for 14 days relative to control; assay type: cell-based; conditions: hepg2, 336 h
[39] = Cardiotoxicity against human embryonic stem cell-induced ventricular cardiomyocytes administered on day 7 and measured on day 10 after 30 mins incubation by CellTiter Glo assay; assay type: toxicity, cell-based, Cardiac muscle cell

Chain of RNA-directed RNA polymerase (Hepacivirus hominis) (O39930 1-591): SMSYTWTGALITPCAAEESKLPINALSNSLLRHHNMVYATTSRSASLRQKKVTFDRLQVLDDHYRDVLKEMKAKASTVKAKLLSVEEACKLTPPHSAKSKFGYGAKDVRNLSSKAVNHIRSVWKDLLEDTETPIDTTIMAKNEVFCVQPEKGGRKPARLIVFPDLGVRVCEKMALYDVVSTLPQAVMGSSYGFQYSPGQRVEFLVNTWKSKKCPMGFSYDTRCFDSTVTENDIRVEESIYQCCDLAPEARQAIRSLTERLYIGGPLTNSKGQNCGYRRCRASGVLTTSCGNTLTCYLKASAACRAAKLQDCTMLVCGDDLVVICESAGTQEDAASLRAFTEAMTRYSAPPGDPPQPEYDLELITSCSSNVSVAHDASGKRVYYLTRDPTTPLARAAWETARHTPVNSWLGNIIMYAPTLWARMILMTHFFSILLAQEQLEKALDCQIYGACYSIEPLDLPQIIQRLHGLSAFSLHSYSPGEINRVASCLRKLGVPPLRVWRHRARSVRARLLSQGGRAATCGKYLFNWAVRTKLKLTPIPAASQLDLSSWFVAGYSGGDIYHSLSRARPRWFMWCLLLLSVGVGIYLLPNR

C[C@@]1(O)[C@H](O)[C@@H](CO)O[C@H]1n1ccc(N)nc1=O
EC90 [1]: 9.9 µM | CC50 [2]: 60 µM | CC50 [3]: 22 µM | CC50 [4]: > 100 µM

CC(C)OC(=O)[C@H](C)NP(=O)(OC[C@H]1O[C@@H](n2ccc(=O)[nH]c2=O)[C@](F)(Br)[C@H]1O)Oc1ccccc1 (mixture of isomers)
EC90 [1]: 0.9 µM | remaining at 2 h, 2 µM [5]: 100% | CC50 at 120 h [6]: > 100 µM | CC50 at 96 h [7]: > 100 µM | Activity [8]: 140% | IC50 at 14 days [9]: > 50 µM | remaining at 2 h, 2 µM [10]: 0.2% | inhibition at 336 h, 50 µM [11]: 39% | IC50 at 14 days [12]: > 50 µM | CC50 [13]: > 10 µM | inhibition at 336 h, 50 µM [14]: 40%

CC(C)OC(=O)[C@H](C)N[P@](=O)(OC[C@H]1O[C@@H](n2ccc(=O)[nH]c2=O)[C@@](F)(Br)[C@@H]1O)Oc1ccccc1 (single isomer, unassigned)
EC90 [1]: 0.074 to 0.28 µM | inhibition at 336 h, 12.5 µM [15]: 23% | inhibition at 336 h, 12.5 µM [16]: 11% | IC50 [17]: 72 µM | CC50 at 120 h [6]: > 100 µM | CLint scaled [18]: 63.2 mL/min/kg | IC50 at 14 days [19]: > 100 µM | CC50 at 96 h [7]: > 100 µM | Activity [20]: 120% | Tmax [21]: 12 h | Activity [8]: 220% | IC50 at 14 days [9]: 32 µM | inhibition at 336 h, 25 µM [22]: 39% | EC90 [23]: 0.077 µM | IC50 [24]: 76 µM | inhibition at 336 h, 50 µM [11]: 58% | EC90 [25]: 0.083 µM | EC90 [26]: 0.13 µM | IC50 at 3 days [27]: > 100 µM | Stability [28]: Stable | half-life [29]: > 2.42 h | half-life [30]: 0.328 h | IC50 at 14 days [31]: > 100 µM | remaining at 1 h [32]: 3.7% | CC50 [4]: > 10 µM | remaining at 2 h, 2 µM [33]: 90% | Drug metabolism [34]: 20130 ng/mL | microsomal CLint [35]: 70.2 µL/min/mg | IC50 at 3 days [36]: > 100 µM | Drug uptake [37]: Bld | Activity [38]: 90% | inhibition at 336 h, 50 µM [14]: 72% | IC50 at 3 days [39]: > 100 µM
